# Assay results from patent publication US12491252B2, “Substituted 3-amino-5-phenylbenzamide compounds as covalent inhibitors of enhancer zeste homolog 2 (EZH2) and proteolysis-targeting chimeric derivatives thereof (PROTACs) that induce degradation of EZH2” (Northwestern University, priority 2021, dated 2025).
# pIC50: −log10 of the molar value. Where two headings read alike, the source gives them in different places.
# What was measured:
# SUZ12 [1] = test: Western blot of SUZ12 in C4-2B cells; format: cell-based; settings: FIG. 14, 10 μM for 6 days
# H3K27me3 = test: Western blot of H3K27me3 levels in C4-2B cells; format: cell-based; settings: FIG. 14, 10 μM for 6 days
# EZH2 [2] = biological target: T1, EZH2 (Homo sapiens, UniProt Q15910); test: Ubiquitination of EZH2 in C4-2B cells with MG132; format: cell-based; settings: FIG. 15B, plus proteasome inhibitor MG132
# T1 sequence (Q15910 whole entry): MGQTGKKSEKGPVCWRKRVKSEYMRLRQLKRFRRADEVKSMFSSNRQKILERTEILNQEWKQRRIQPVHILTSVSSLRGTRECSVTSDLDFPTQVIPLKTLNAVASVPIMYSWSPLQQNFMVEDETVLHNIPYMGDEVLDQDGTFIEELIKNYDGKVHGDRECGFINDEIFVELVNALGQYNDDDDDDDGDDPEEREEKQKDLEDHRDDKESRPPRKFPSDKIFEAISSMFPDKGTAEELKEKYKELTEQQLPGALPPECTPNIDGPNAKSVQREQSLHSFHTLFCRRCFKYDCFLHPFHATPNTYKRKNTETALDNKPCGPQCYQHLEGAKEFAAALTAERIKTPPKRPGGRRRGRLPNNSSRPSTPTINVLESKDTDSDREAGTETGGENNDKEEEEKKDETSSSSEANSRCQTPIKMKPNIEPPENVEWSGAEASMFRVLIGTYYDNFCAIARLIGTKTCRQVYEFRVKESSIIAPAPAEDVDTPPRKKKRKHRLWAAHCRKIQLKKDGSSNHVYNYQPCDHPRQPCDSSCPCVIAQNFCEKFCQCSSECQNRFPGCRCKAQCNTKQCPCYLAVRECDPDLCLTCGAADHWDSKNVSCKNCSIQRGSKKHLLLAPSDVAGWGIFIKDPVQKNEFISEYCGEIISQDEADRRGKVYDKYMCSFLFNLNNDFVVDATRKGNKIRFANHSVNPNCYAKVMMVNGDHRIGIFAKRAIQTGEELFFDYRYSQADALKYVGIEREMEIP
# T1 sequence (Q15022 whole entry partner): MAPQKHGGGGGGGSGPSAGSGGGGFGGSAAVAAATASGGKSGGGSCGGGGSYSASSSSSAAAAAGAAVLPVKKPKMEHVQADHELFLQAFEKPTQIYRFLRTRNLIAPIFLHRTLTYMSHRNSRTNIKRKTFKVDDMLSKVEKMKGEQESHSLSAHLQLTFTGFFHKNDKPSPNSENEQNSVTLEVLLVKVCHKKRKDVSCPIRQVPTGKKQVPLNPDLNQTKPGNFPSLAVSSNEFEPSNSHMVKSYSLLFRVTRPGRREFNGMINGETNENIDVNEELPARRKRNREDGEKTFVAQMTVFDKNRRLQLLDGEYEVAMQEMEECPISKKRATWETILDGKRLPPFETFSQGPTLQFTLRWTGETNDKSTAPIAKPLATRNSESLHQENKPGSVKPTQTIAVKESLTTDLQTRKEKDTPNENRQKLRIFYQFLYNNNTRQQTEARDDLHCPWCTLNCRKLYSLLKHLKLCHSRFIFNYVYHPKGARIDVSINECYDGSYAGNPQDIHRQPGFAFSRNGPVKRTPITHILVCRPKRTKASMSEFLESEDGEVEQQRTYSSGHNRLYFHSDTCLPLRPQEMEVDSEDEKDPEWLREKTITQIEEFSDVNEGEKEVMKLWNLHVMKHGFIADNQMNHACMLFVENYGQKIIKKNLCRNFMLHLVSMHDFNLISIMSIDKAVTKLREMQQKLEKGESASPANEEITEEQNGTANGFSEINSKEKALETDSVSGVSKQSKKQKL
# T1 sequence (O75530 whole entry partner): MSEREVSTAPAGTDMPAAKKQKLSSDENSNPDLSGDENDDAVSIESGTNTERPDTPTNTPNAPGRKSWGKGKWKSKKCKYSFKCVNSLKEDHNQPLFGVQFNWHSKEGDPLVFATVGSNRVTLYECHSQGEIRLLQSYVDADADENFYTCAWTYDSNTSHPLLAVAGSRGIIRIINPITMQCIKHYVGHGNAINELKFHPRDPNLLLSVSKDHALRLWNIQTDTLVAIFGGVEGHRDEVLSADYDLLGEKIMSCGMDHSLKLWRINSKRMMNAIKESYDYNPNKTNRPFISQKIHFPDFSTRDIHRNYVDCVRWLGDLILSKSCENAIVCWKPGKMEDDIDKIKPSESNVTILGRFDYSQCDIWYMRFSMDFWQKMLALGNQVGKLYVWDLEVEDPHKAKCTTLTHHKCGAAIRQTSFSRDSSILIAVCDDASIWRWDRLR
# EZH2 [3] = biological target: T1, EZH2; test: Western blot of EZH2 with esiRNA knockdown of VHL or siRNA control; format: cell-based; settings: FIG. 16, duplicate
# Procedure: FIG. 16. Cells were treated with indicated compounds with either esiRNA knockdown of VHL or siRNA control (no EZH2 knockdown) and blotted for EZH2 and VHL. […] Experiment was run in duplicate with both replicates shown on the left and right sides.
# LNCaP cells [4] = test: Live imaging cell proliferation of LNCaP cells; format: cell-based; settings: FIG. 17A, monitored over 168 hours
# Description: FIG. 17A-17B. (FIG. 17A) Live imaging cell proliferation of LNCaP cells. […] DMSO is set as the negative control. […] (FIG. 17B) Colony assays using LnCaP cells after treatment with the indicated compounds for 7 days.
# LNCaP cells [5] = test: Colony assay using LnCaP cells; format: cell-based; settings: FIG. 17B, treatment for 7 days
# Procedure: FIG. 17A-17B. (FIG. 17A) Live imaging cell proliferation of LNCaP cells. Cells were treated with indicated compounds and monitored over 168 hours for proliferation by phase object confluence. DMSO is set as the negative control. […] (FIG. 17B) Colony assays using LnCaP cells after treatment with the indicated compounds for 7 days.
# LNCaP cells [6] = test: Imaging of LnCaP cells (cell density); format: cell-based; settings: FIG. 18, 12 days' treatment
# Description: FIG. 18. Imaging of LnCaP cells after 12 days' treatment with the indicated compounds.
# LNCaP cells [7] = test: WST cell proliferation/viability assay in LNCaP cells; format: cell-based
# Procedure: FIG. 19A-19B. (FIG. 19A) WST cell proliferation assay of indicated compounds in LNCaP cells. […] (FIG. 19B) Effects of indicated compounds on EZH2, AR, and FOXA1 by western blot at 1 μM in LNCaP cells.
# (§1) Cell proliferation was measured using WST-1 Kit (Clontech) according to manufacturer's protocol.
# C4-2B cells [8] = test: Live imaging cell proliferation of C4-2B cells; format: cell-based; settings: FIG. 20A, monitored over 168 hours
# Description: FIG. 20A-20B. (FIG. 20A) Live imaging cell proliferation of C4-2B cells. […] DMSO is set as the negative control. […] (FIG. 20B) Colony assays using C4-2B cells after treatment with the indicated compounds for 7 days.
# C4-2B cells [9] = test: Colony assay using C4-2B cells; format: cell-based; settings: FIG. 20B, treatment for 7 days
# Procedure: FIG. 20A-20B. (FIG. 20A) Live imaging cell proliferation of C4-2B cells. Cells were treated with indicated compounds and monitored over 168 hours for proliferation by phase object confluence. DMSO is set as the negative control. […] (FIG. 20B) Colony assays using C4-2B cells after treatment with the indicated compounds for 7 days.
# C4-2B cells [10] = test: Imaging of C4-2B cells (cell density); format: cell-based; settings: FIG. 21, 12 days' treatment
# Description: FIG. 21. Imaging of C4-2B cells after 12 days' treatment with the indicated compounds.
# C4-2B cells [11] = test: WST cell proliferation assay in C4-2B cells; format: cell-based; settings: FIG. 22, 6 days
# Procedure: FIG. 22A-22B. WST cell proliferation assay of indicated compounds in C4-2B cells. Cells were treated for 6 days. […] (FIG. 19B) Effects of indicated compounds on EZH2, AR, and FOXA1 by western blot at 1 μM in C4-2B cells.
# as §1
# 22Rv1 cells [12] = test: WST cell viability assay in 22Rv1 cells; format: cell-based
# Procedure: as §1
# 22Rv1 cells [13] = test: Cell titer glo cell viability assay in 22Rv1 cells; format: cell-based
# SU-DHL4 cells = test: WST cell viability assay in SU-DHL4 cells; format: cell-based; settings: for pIC50: Homo sapiens, variable slope, read-out: IC50 (best-fit value)
# Procedure: as §1
# SU-DHL6 cells = test: WST cell viability assay in SU-DHL6 cells; format: cell-based
# Procedure: as §1
# EZH2 [14] = test: Western blot of EZH2 in SU-DHL4 cells; format: cell-based; settings: FIG. 33, 48 hours
# SUZ12 [15] = test: Western blot of SUZ12 in SU-DHL4 cells; format: cell-based; settings: FIG. 33, 48 hours
# Procedure: (§2) FIG. 33. […] Cell were treated for 48 hours with the indicated concentrations of compounds.
# EED [16] = test: Western blot of EED in SU-DHL4 cells; format: cell-based; settings: FIG. 33, 48 hours
# Procedure: as §2
# EZH2 [17] = test: Western blot of EZH2 in SU-DHL6 cells; format: cell-based; settings: FIG. 33, 48 hours
# SUZ12 [18] = test: Western blot of SUZ12 in SU-DHL6 cells; format: cell-based; settings: FIG. 33, 48 hours
# Procedure: as §2
# EED [19] = test: Western blot of EED in SU-DHL6 cells; format: cell-based; settings: FIG. 33, 48 hours
# Procedure: as §2
# [20] = Pharmacokinetics in mice, IP cassette dosing, plasma LC/MS/MS; format: in vivo, C57Bl/6 mouse; settings: mouse, C57Bl/6 mice, 4 mg/kg IP, cassette format
# Procedure: FIG. 35. Pharmacokinetics of indicated compounds. Compounds were administered to C57Bl/6 mouse mice at 4 mg/kg using intraperitoneal (IP) injection in cassette format. Plasma was collected at the indicated time points and analyzed by LC/MS/MS using standard methods.
# For assessing pharmacokinetics, compounds were administered to C57Bl/6 mouse mice at 4 mg/kg using intraperitoneal (IP) injection in cassette format. Plasma was collected at the indicated time points and analyzed by LC/MS/MS using standard methods.
# [21] = tested on: prostate cancer cell lines; test: WST-1 cell proliferation in multiple prostate cancer cell lines; format: cell-based; settings: WST-1 Kit
# Procedure: as §1
# lymphoma cell lines = test: WST-1 cell proliferation in multiple lymphoma cell lines; format: cell-based; settings: WST-1 Kit
# Procedure: as §1
# EZH2 [22] = biological target: T1, EZH2; test: Western blot of EZH2 protein in PC3 cells; settings: FIG. 26, 6 days treatment
# Description: (Upper right western blot) Western blot analysis of EZH2 protein in PC3 cells after 6 days treatment.
# EZH2 [23] = biological target: T1, EZH2; test: Western blot of EZH2 protein in C4-2B cells
# EZH2 [24] = biological target: T1, EZH2; test: Western blot of EZH2 protein in DU-145 cells; settings: FIG. 27, 6 days treatment
# Description: (Upper right western blot) Western blot analysis of EZH2 protein in DU-145 cells after 6 days treatment.
# [25] = Table 9, WST1 within 1 μM on SU-DHL4 (as titled)
smiles,measurement,setting,value
CCN(c1cc(-c2ccc(CN3CCN(C(=O)CCCCCCCCCC(=O)N[C@H](C(=O)N4C[C@H](O)C[C@H]4C(=O)NCc4ccc(-c5scnc5C)cc4)C(C)(C)C)CC3)cc2)cc(C(=O)NCc2c(C)cc(C)[nH]c2=O)c1C)C1CCOCC1 [Compound 6272],Reduction of PRC2 component SUZ12,SUZ12 [1],reduction of PRC2 component SUZ12
same,H3K27me3 levels,H3K27me3,reduced H3K27me3 levels
same,Degree of ubiquitination of EZH2,EZH2 [2],much greater degree of ubiquitination of EZH2 than the inactive compound 6286
same,Ability to degrade EZH2 with esiRNA knockdown of VHL,EZH2 [3]; VHL knockdown,inhibition of the ability of active compounds 6272 to degrade EZH2
same,Ability to degrade EZH2 with siRNA control (VHL present),EZH2 [3]; siRNA control lane,able to strongly degrade EZH2
same,Cell proliferation by phase object confluence,LNCaP cells [4],greatest ability to decrease LnCaP proliferation
same,Colonies,LNCaP cells [5],significant reduction in the colonies
same,Cell density by imaging,LNCaP cells [6],significant reduction in the cell density
same,Inhibition of proliferation (WST),"LNCaP cells [7]; FIG. 19A, LNCaP, 6 days",similarly potent effects on inhibiting the proliferation
same,Anti-proliferative effect (WST cell viability),"LNCaP cells [7]; FIG. 23, LNCaP, 5 days' treatment, concentration range",greater anti-proliferative effect than EPZ-6438
same,pIC50,"LNCaP cells [7]; Homo sapiens, Table 3, WST1 test cell viability on LNCaP, [Inhibitor] vs. normalized response, read-out: IC50 (best-fit value)",6.12
same,Cell proliferation by phase object confluence,C4-2B cells [8],decrease C4-2B proliferation
same,Colonies,C4-2B cells [9],significant reduction in the colonies
same,Cell density by imaging,C4-2B cells [10],significant reduction in the cell density
same,Inhibition of proliferation (WST),C4-2B cells [11],similarly potent effects on inhibiting the proliferation
same,Anti-proliferative effect (WST cell viability),"22Rv1 cells [12]; FIG. 24, 22Rv1, 5 days' treatment, concentration range",greater anti-proliferative effect than EPZ-6438
same,pIC50,"22Rv1 cells [12]; Homo sapiens, Table 4, WST1 cell viability with different doses on 22Rv1, read-out: IC50 (best-fit value)",5.87
same,Anti-proliferative effect (Cell titer glo cell viability),"22Rv1 cells [13]; FIG. 25, 22Rv1, 5 days' treatment, concentration range",greater anti-proliferative effect than EPZ-6438
same,pIC50,"22Rv1 cells [13]; Homo sapiens, Table 5, Cell titer glo test cell viability with different doses on 22Rv1, read-out: IC50 (best-fit value)",6.16
same,Anti-proliferative effect (WST cell viability),"SU-DHL4 cells; FIG. 29, SU-DHL4, 4 days' treatment",greater anti-proliferative effect than EPZ-6438
same,pIC50,"SU-DHL4 cells; SU-DHL-4, Table 8, WST1 test cell viability within 1 μM on SU-DHL4",5.60
same,pIC50,"SU-DHL4 cells; SU-DHL-4, Table 9, WST1 test cell viability within 1 μM on SU-DHL4 (as titled)",6.47
same,HillSlope (best-fit value),"SU-DHL4 cells; Table 6, WST1 with higher dose on SU-DHL4",−0.093
same,HillSlope (best-fit value),"SU-DHL4 cells; Table 8, WST1 within 1 μM on SU-DHL4",−0.2858
same,HillSlope (best-fit value),SU-DHL4 cells; [25],−1.235
same,logIC50 (best-fit value),SU-DHL4 cells; [25],−0.4722
same,Anti-proliferative effect (WST cell viability),"SU-DHL6 cells; FIG. 30, SU-DHL6, 4 days' treatment",greater anti-proliferative effect than EPZ-6438
same,Anti-proliferative effect (WST cell viability) at 1 μM,"SU-DHL6 cells; FIG. 32, SU-DHL6, 4 days' treatment, 1 μM",greater anti-proliferative effect than EPZ-6438
same,pIC50,"SU-DHL6 cells; Homo sapiens, SU-DHL-6, Table 7, WST1 test cell viability with higher dose on SU-DHL6, variable slope, read-out: IC50 (best-fit value)",6.05
same,Degradation of EZH2,EZH2 [14],significant degradation
same,Degradation of SUZ12,SUZ12 [15],significant degradation
same,Degradation of EED,EED [16],significant degradation
same,Degradation of EZH2,EZH2 [17],significant degradation
same,Degradation of SUZ12,SUZ12 [18],significant degradation
same,Degradation of EED,EED [19],significant degradation
same,half-life,[20],3.5 to 6 h
same,Inhibition of cell proliferation versus EPZ-6438,[21],more potent and effective at inhibiting cell proliferation than the catalytic EZH2 inhibitor EPZ-6438
same,Inhibition of cell proliferation versus EPZ-6438,lymphoma cell lines,more potent and effective at inhibiting cell proliferation than the catalytic EZH2 inhibitor EPZ-6438
same,EZH2 protein (western blot),EZH2 [22],significant reduction in EZH2
same,"Degrading EZH2 protein at nM doses, versus 2304","EZH2 [23]; FIG. 10, 24 hours",more effective than 2304
same,Degradation of EZH2,"EZH2 [23]; FIG. 14, 10 μM for 6 days",strong degradation of EZH2
same,EZH2 protein (western blot),EZH2 [24],significant reduction in EZH2
